In US10442807B2, “Aryl substituted bicyclic compounds as herbicides” (FMC Corporation, priority 2015, dated 2019):

Experiments:
Type in all cases: in vivo
kochia (Kochia scoparia) [1] = assay: Test A preemergence, directed soil spray, visual injury rating; settings: approx. 10 d, 0 = no effect, 100 = complete control
In short: (§1)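 In a loam soil and sand blend, either planted seeds got a preemergence directed soil spray or plants at the one- to two-leaf stage (2 to 10 cm tall) were sprayed, using test chemicals in a non-phytotoxic solvent mixture with surfactant. After about 10 d in a greenhouse, injury was visually rated against untreated controls on a 0-100 scale.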

[2] = system: ryegrass, Italian (Italian ryegrass, Lolium multiflorum); assay: as above; settings: approx. 10 d, 0 = no effect, 100 = complete control
In short: as §1

[3] = system: ragweed (common ragweed, Ambrosia elation); assay: as above; settings: approx. 10 d, 0 = no effect, 100 = complete control
In short: as §1

[4] = system: pigweed (Amaranthus retroflexus); assay: as above; settings: approx. 10 d, 0 = no effect, 100 = complete control
In short: as §1

[5] = system: barnyardgrass (Echinochloa crus-galli); assay: as above; settings: approx. 10 d, 0 = no effect, 100 = complete control
In short: as §1

[6] = system: foxtail, giant (giant foxtail, Setaria faberii); assay: as above; settings: approx. 10 d, 0 = no effect, 100 = complete control
In short: as §1

[7] = system: ducksalad (Heteranthera limosa); assay: Test B flooded paddy test, visual plant response rating; settings: 250 g ai/ha; applied to paddy water at 2-leaf stage; rated after 13 to 15 days; scale 0 to 100, 0 is no effect, 100 is complete control
In short: (§2)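 Flooded 3 cm above soil; cpd added to paddy water; depth maintained; greenhouse 13–15 d; visual rating vs control, 0–100 (0 none, 100 complete control); "-" = not tested.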

[8] = system: sedge, umbrella (small-flower umbrella sedge, Cyperus difformis); assay: as above; settings: 250 g ai/ha; applied to paddy water at 2-leaf stage; rated after 13 to 15 days; scale 0 to 100, 0 is no effect, 100 is complete control
In short: as §2

[9] = system: barnyardgrass (Echinochloa crus-galli); assay: as above; settings: 250 g ai/ha; applied to paddy water at 2-leaf stage; rated after 13 to 15 days; scale 0 to 100, 0 is no effect, 100 is complete control
In short: as §2

rice (Oryza sativa) = assay: as above; settings: 250 g ai/ha; applied to paddy water at 2-leaf stage; rated after 13 to 15 days; scale 0 to 100, 0 is no effect, 100 is complete control
In short: as §2

[10] = system: wheat (Triticum aestivum); assay: Test A postemergence application, visual injury rating; settings: approx. 10 d, 0 = no effect, 100 = complete control
In short: as §1

corn (Zea mays) = assay: as above; settings: approx. 10 d, 0 = no effect, 100 = complete control
In short: as §1

kochia (Kochia scoparia) [11] = assay: as above; settings: approx. 10 d, 0 = no effect, 100 = complete control
In short: as §1

[12] = system: ryegrass, Italian (Italian ryegrass, Lolium multiflorum); assay: as above; settings: approx. 10 d, 0 = no effect, 100 = complete control
In short: as §1

[13] = system: ragweed (common ragweed, Ambrosia elation); assay: as above; settings: approx. 10 d, 0 = no effect, 100 = complete control
In short: as §1

[14] = system: pigweed (Amaranthus retroflexus); assay: as above; settings: approx. 10 d, 0 = no effect, 100 = complete control
In short: as §1

[15] = system: blackgrass (Alopecurus myosuroides); assay: as above; settings: approx. 10 d, 0 = no effect, 100 = complete control
In short: as §1

[16] = system: galium (catchweed bedstraw, Galium aparine); assay: as above; settings: approx. 10 d, 0 = no effect, 100 = complete control
In short: as §1

[17] = system: barnyardgrass (Echinochloa crus-galli); assay: as above; settings: approx. 10 d, 0 = no effect, 100 = complete control
In short: as §1

[18] = system: foxtail, giant (giant foxtail, Setaria faberii); assay: as above; settings: approx. 10 d, 0 = no effect, 100 = complete control
In short: as §1

SMILES | Kochia plant response rating (0 to 100 scale) (kochia (Kochia scoparia) [1]; 125 g ai/ha) | Kochia plant response rating (0 to 100 scale) (kochia (Kochia scoparia) [1]; 500 g ai/ha) | Ryegrass, Italian plant response rating (0 to 100 scale) ([2]; 125 g ai/ha) | Ryegrass, Italian plant response rating (0 to 100 scale) ([2]; 500 g ai/ha) | Ragweed plant response rating (0 to 100 scale) ([3]; 125 g ai/ha) | Ragweed plant response rating (0 to 100 scale) ([3]; 500 g ai/ha) | Pigweed plant response rating (0 to 100 scale) ([4]; 125 g ai/ha) | Pigweed plant response rating (0 to 100 scale) ([4]; 500 g ai/ha) | Barnyardgrass plant response rating (0 to 100 scale) ([5]; 125 g ai/ha) | Barnyardgrass plant response rating (0 to 100 scale) ([5]; 500 g ai/ha) | Foxtail, Giant plant response rating (0 to 100 scale) ([6]; 125 g ai/ha) | Foxtail, Giant plant response rating (0 to 100 scale) ([6]; 500 g ai/ha) | Plant response rating, Flood, Ducksalad [7] | Plant response rating, Flood, Sedge, Umbrella [8] | Plant response rating, Flood, Barnyardgrass [9] | Plant response rating, Flood, Rice (rice (Oryza sativa)) | Wheat plant response rating (0 to 100 scale) ([10]; 125 g ai/ha) | Wheat plant response rating (0 to 100 scale) ([10]; 500 g ai/ha) | Corn plant response rating (0 to 100 scale) (corn (Zea mays); 125 g ai/ha) | Corn plant response rating (0 to 100 scale) (corn (Zea mays); 500 g ai/ha) | further results
Cc1ccc(C2Cn3cnnc3C2C(=O)Nc2ccccc2F)cc1 (stereo not drawn) [Compound 13] | 70 | 70 | 0 | 0 | 0 | 80 | 0 | 0 | 60 | 70 | 70 | 90 | 45 | 0 | 40 | 20 | 0 | 0 | 0 | 20 | Kochia plant response rating (0 to 100 scale) (kochia (Kochia scoparia) [11]; 125 g ai/ha): 0; Kochia plant response rating (0 to 100 scale) (kochia (Kochia scoparia) [11]; 500 g ai/ha): 30; Ryegrass, Italian plant response rating (0 to 100 scale) ([12]; 125 g ai/ha): 0; Ryegrass, Italian plant response rating (0 to 100 scale) ([12]; 500 g ai/ha): 0; Ragweed plant response rating (0 to 100 scale) ([13]; 125 g ai/ha): 0; Ragweed plant response rating (0 to 100 scale) ([13]; 500 g ai/ha): 30; Pigweed plant response rating (0 to 100 scale) ([14]; 125 g ai/ha): 0; Pigweed plant response rating (0 to 100 scale) ([14]; 500 g ai/ha): 0; Blackgrass plant response rating (0 to 100 scale) ([15]; 125 g ai/ha): 20; Blackgrass plant response rating (0 to 100 scale) ([15]; 500 g ai/ha): 40; Galium plant response rating (0 to 100 scale) ([16]; 125 g ai/ha): 40; Galium plant response rating (0 to 100 scale) ([16]; 500 g ai/ha): 40; Barnyardgrass plant response rating (0 to 100 scale) ([17]; 125 g ai/ha): 50; Barnyardgrass plant response rating (0 to 100 scale) ([17]; 500 g ai/ha): 90; Foxtail, Giant plant response rating (0 to 100 scale) ([18]; 125 g ai/ha): 60; Foxtail, Giant plant response rating (0 to 100 scale) ([18]; 500 g ai/ha): 80
O=C(Nc1ccccc1F)C1c2nncn2CC1c1ccc(Cl)cc1 (stereo not drawn) [Compound 20] | 30 | 90 | 0 | 0 | 0 | 50 | 0 | 0 | 20 | 70 | 30 | 90 | 70 | 0 | 40 | 0 | 0 | 20 | 20 | 80 | Kochia plant response rating (0 to 100 scale) (kochia (Kochia scoparia) [11]; 125 g ai/ha): 0; Kochia plant response rating (0 to 100 scale) (kochia (Kochia scoparia) [11]; 500 g ai/ha): 40; Ryegrass, Italian plant response rating (0 to 100 scale) ([12]; 125 g ai/ha): 0; Ryegrass, Italian plant response rating (0 to 100 scale) ([12]; 500 g ai/ha): 0; Ragweed plant response rating (0 to 100 scale) ([13]; 125 g ai/ha): 0; Ragweed plant response rating (0 to 100 scale) ([13]; 500 g ai/ha): 20; Pigweed plant response rating (0 to 100 scale) ([14]; 125 g ai/ha): 0; Pigweed plant response rating (0 to 100 scale) ([14]; 500 g ai/ha): 0; Blackgrass plant response rating (0 to 100 scale) ([15]; 125 g ai/ha): 0; Blackgrass plant response rating (0 to 100 scale) ([15]; 500 g ai/ha): 0; Galium plant response rating (0 to 100 scale) ([16]; 125 g ai/ha): 30; Galium plant response rating (0 to 100 scale) ([16]; 500 g ai/ha): 50; Barnyardgrass plant response rating (0 to 100 scale) ([17]; 125 g ai/ha): 20; Barnyardgrass plant response rating (0 to 100 scale) ([17]; 500 g ai/ha): 60; Foxtail, Giant plant response rating (0 to 100 scale) ([18]; 125 g ai/ha): 20; Foxtail, Giant plant response rating (0 to 100 scale) ([18]; 500 g ai/ha): 70
CCc1ccc(C2Cn3c(C)nnc3C2C(=O)Nc2cccc(F)c2C)cc1 (stereo not drawn) [Compound 9] | 0 | 0 | 0 | 0 | 0 | 0 | 0 | 0 | 40 | 70 | 60 | 90 | 75 | 0 | 20 | 15 | 0 | 0 | 0 | 0 | Kochia plant response rating (0 to 100 scale) (kochia (Kochia scoparia) [11]; 125 g ai/ha): 0; Kochia plant response rating (0 to 100 scale) (kochia (Kochia scoparia) [11]; 500 g ai/ha): 0; Ryegrass, Italian plant response rating (0 to 100 scale) ([12]; 125 g ai/ha): 0; Ryegrass, Italian plant response rating (0 to 100 scale) ([12]; 500 g ai/ha): 20; Ragweed plant response rating (0 to 100 scale) ([13]; 125 g ai/ha): 0; Ragweed plant response rating (0 to 100 scale) ([13]; 500 g ai/ha): 0; Pigweed plant response rating (0 to 100 scale) ([14]; 125 g ai/ha): 0; Pigweed plant response rating (0 to 100 scale) ([14]; 500 g ai/ha): 0; Blackgrass plant response rating (0 to 100 scale) ([15]; 125 g ai/ha): 20; Blackgrass plant response rating (0 to 100 scale) ([15]; 500 g ai/ha): 70; Galium plant response rating (0 to 100 scale) ([16]; 125 g ai/ha): 0; Galium plant response rating (0 to 100 scale) ([16]; 500 g ai/ha): 20; Barnyardgrass plant response rating (0 to 100 scale) ([17]; 125 g ai/ha): 30; Barnyardgrass plant response rating (0 to 100 scale) ([17]; 500 g ai/ha): 70; Foxtail, Giant plant response rating (0 to 100 scale) ([18]; 125 g ai/ha): 0; Foxtail, Giant plant response rating (0 to 100 scale) ([18]; 500 g ai/ha): 50
Cc1ccc(C2Cn3cnnc3C2C(=O)Nc2cccc(F)c2C)cc1C (stereo not drawn) [Compound 26] | 20 | 30 | 0 | 50 | 0 | 0 | 0 | 0 | 60 | 90 | 80 | 90 | 85 | 0 | 0 | 20 | 30 | 0 | 20 | 0 | Kochia plant response rating (0 to 100 scale) (kochia (Kochia scoparia) [11]; 125 g ai/ha): 0; Kochia plant response rating (0 to 100 scale) (kochia (Kochia scoparia) [11]; 500 g ai/ha): 0; Ryegrass, Italian plant response rating (0 to 100 scale) ([12]; 125 g ai/ha): 0; Ryegrass, Italian plant response rating (0 to 100 scale) ([12]; 500 g ai/ha): 20; Ragweed plant response rating (0 to 100 scale) ([13]; 125 g ai/ha): 0; Ragweed plant response rating (0 to 100 scale) ([13]; 500 g ai/ha): 0; Pigweed plant response rating (0 to 100 scale) ([14]; 125 g ai/ha): 0; Pigweed plant response rating (0 to 100 scale) ([14]; 500 g ai/ha): 0; Blackgrass plant response rating (0 to 100 scale) ([15]; 125 g ai/ha): 0; Blackgrass plant response rating (0 to 100 scale) ([15]; 500 g ai/ha): 50; Galium plant response rating (0 to 100 scale) ([16]; 125 g ai/ha): 30; Galium plant response rating (0 to 100 scale) ([16]; 500 g ai/ha): 0; Barnyardgrass plant response rating (0 to 100 scale) ([17]; 125 g ai/ha): 50; Barnyardgrass plant response rating (0 to 100 scale) ([17]; 500 g ai/ha): 80; Foxtail, Giant plant response rating (0 to 100 scale) ([18]; 125 g ai/ha): 50; Foxtail, Giant plant response rating (0 to 100 scale) ([18]; 500 g ai/ha): 80
